The record followed here is ChEMBL document CHEMBL1145280, “Control of hepatitis C: a medicinal chemistry perspective” (J Med Chem, 2005).

For test [1], the target named is T1, NS3 (Hepatitis C virus, UniProt A3EZJ3). Kind of test: Inhibitory concentration against hepatitis C virus NS4A binding region of NS3 protease. Further details: species or system Hepacivirus hominis.
The target of test [2] is T2, Hepatitis C virus NS4A protein (Hepatitis C virus, UniProt D2K2A8).
T2 sequence (D2K2A8 whole entry): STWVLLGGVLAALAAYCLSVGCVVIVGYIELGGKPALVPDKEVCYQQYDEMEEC
Kind of test: Inhibitory concentration against hepatitis C virus NS4A active site. Details: species or system Hepacivirus hominis.

The target of test [3] is T1, NS3. The test can be described thus: Inhibitory concentration against hepatitis C virus helicase; range 0.6-0.7. Further details: species or system Hepacivirus hominis.
Test [4] has as its target T2, Hepatitis C virus NS4A protein. Kind of test: Inhibitory concentration against hepatitis C NS4A protease. Further details: species or system Hepacivirus hominis.
The next test has as its target Genome polyprotein (Hepatitis C virus genotype 1a (isolate 1) (HCV), UniProt P26664). Kind of test: Inhibitory concentration against hepatitis C virus NS2/3 protease. Further details: species or system Hepacivirus hominis.
The next test addresses NS3 (Hepatitis C virus) (UniProt A3EZJ3). Kind of test: Percent inhibition against hepatitis C virus helicase at 25 ug/mL; Range 6-13. Conditions: Hepacivirus hominis.

Positions of bridges follow the written chain, without caps; N, C: chain ends. Non-standard residues stand in square brackets, D forms with d. Residues, ends and D or L forms follow the SMILES beside them. Chains are numbered I, II in the order given. Ahx = NCCCCCC(=O)O

T1 sequence (A3EZJ3 whole entry): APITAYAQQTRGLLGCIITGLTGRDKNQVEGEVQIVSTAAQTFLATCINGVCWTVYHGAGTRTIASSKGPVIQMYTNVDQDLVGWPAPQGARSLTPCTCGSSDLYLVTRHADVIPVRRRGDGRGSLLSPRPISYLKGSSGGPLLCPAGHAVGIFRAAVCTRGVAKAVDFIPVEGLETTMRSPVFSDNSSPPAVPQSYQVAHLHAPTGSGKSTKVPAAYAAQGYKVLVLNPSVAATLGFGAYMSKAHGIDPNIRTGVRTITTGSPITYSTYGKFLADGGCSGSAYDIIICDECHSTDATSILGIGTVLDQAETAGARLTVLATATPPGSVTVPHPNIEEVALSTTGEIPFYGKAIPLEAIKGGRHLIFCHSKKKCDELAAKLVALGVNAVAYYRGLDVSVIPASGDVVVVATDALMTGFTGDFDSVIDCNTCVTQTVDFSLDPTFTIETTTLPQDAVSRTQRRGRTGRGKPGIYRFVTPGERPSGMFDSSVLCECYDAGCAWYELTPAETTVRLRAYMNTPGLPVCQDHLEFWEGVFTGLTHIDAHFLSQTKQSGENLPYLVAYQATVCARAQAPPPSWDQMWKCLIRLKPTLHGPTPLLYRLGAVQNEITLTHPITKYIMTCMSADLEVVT
Chain of Genome polyprotein (P26664 810-1026 limits assumed): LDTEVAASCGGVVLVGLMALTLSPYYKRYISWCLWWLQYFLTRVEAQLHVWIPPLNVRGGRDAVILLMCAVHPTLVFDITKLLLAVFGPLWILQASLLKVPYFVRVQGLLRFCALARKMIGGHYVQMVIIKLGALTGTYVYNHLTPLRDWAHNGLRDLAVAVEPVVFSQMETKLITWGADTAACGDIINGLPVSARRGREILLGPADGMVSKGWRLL
Chain of Genome polyprotein (P26664 1027-1657 limits assumed): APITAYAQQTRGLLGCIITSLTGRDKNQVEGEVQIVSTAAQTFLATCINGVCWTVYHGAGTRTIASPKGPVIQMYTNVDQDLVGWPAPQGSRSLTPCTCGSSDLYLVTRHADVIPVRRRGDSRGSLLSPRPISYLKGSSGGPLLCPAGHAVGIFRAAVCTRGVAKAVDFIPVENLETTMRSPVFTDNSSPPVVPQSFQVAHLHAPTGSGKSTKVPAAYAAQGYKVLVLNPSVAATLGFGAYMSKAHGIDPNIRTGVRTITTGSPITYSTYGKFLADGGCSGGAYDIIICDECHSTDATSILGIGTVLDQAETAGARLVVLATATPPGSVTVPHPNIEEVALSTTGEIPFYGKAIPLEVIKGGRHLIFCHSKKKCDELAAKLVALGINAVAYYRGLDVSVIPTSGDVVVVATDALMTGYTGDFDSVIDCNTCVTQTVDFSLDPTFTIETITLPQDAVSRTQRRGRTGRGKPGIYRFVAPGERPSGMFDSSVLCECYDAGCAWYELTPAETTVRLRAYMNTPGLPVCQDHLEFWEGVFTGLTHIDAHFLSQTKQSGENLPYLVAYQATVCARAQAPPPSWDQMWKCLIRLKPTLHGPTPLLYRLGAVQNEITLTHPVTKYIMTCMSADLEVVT
Chain of NS3 (Hepatitis C virus) (A3EZJ3 as listed by the source): as the sequence (A3EZJ3 whole entry) above

Take `CC[C@H](C)[C@H](NC(=O)[C@H](CCCN=C(N)N)NC(=O)CNC(=O)[C@@H](NC(=O)[C@@H](NC(=O)[C@@H](NC(=O)[C@@H](NC(=O)[C@@H](N)CS)C(C)C)C(C)C)[C@@H](C)CC)C(C)C)C(=O)N[C@H](C(=O)N[C@@H](CC(C)C)C(=O)N[C@@H](CO)C(=O)NCC(=O)N[C@@H](CCCCN)C(=O)NCCCC[C@H](NC(=O)CCCCCNC(=O)[C@H](CS)NC(=O)[C@H](CS)NC(=O)[C@@H](NC(=O)[C@@H](NC(=O)[C@H](CC(=O)O)NC(=O)[C@@H](N)CCC(=O)O)C(C)C)C(C)C)C(=O)O)C(C)C` (I: H-CVVIVGRIVLSGK / II: H-EDVVCC[Ahx]K-OH; amide I:C-II:8): at NS3 [1], the IC50 (as a rule, the concentration needed to halve the response being measured) is 3000 nM.
As to H-SLVIRGVIV-OH, 600 nM corresponded to half-maximal inhibition in test [2] (IC50).
With `CN1CCN(CCCN2c3ccccc3Sc3ccc(C(F)(F)F)cc32)CC1` [TRIFLUOPERAZINE], at NS3 [3], the half-maximal inhibitory concentration (IC50) is 700 nM.
The compound `CC[C@H](C)[C@H](NC(=O)[C@H](CCCNC(=N)N)NC(=O)CNC(=O)[C@@H](NC(=O)[C@@H](NC(=O)[C@@H](NC(=O)[C@@H](NC(=O)[C@H](CS)NC(=O)CCCCCNC(=O)CCCCCNC(=O)[C@H](CS)NC(=O)[C@H](CS)NC(=O)[C@@H](NC(=O)[C@@H](NC(=O)[C@H](CC(=O)O)NC(=O)[C@@H](N)CCC(=O)O)C(C)C)C(C)C)C(C)C)C(C)C)[C@@H](C)CC)C(C)C)C(=O)N[C@H](C(=O)N[C@@H](CC(C)C)C(=O)N[C@@H](CO)C(=O)NCC(=O)N[C@@H](CCCCN)C(=O)O)C(C)C` (H-EDVVCC[Ahx][Ahx]CVVIVGRIVLSGK-OH) came in with a half-inhibitory concentration (IC50) on NS3 [1] of 600 nM.
Take `CC[C@H](C)[C@H](NC(=O)[C@H](CCCN=C(N)N)NC(=O)CNC(=O)[C@@H](NC(=O)[C@@H](NC(=O)[C@@H](NC(=O)[C@@H](NC(=O)[C@H](CS)NC(=O)CCCCCNC(=O)[C@H](CS)NC(=O)[C@H](CS)NC(=O)[C@@H](NC(=O)[C@@H](NC(=O)[C@H](CC(=O)O)NC(=O)[C@@H](N)CCC(=O)O)C(C)C)C(C)C)C(C)C)C(C)C)[C@@H](C)CC)C(C)C)C(=O)N[C@H](C(=O)N[C@@H](CC(C)C)C(=O)N[C@@H](CO)C(=O)NCC(=O)N[C@@H](CCCCN)C(=O)N[C@@H](CCCCN)C(=O)O)C(C)C` (H-EDVVCC[Ahx]CVVIVGRIVLSGKK-OH): at NS3 [1], the 50% inhibitory concentration (IC50) is 3000 nM. Against the preceding compound, the IC50 is about 5-fold higher.
At NS3 [1], `CC[C@H](C)[C@H](NC(=O)CNC(=O)[C@H](CCCN=C(N)N)NC(=O)[C@@H](NC(=O)[C@@H](NC(=O)[C@H](CC(C)C)NC(=O)[C@H](CO)NC(=O)CNC(=O)[C@H](CCCCN)NC(=O)CCCCCNC(=O)[C@H](CS)NC(=O)[C@H](CS)NC(=O)[C@@H](NC(=O)[C@@H](NC(=O)[C@H](CCC(=O)O)NC(=O)[C@@H](N)CC(=O)O)C(C)C)C(C)C)C(C)C)[C@@H](C)CC)C(=O)N[C@H](C(=O)N[C@H](C(=O)N[C@@H](CS)C(=O)N[C@@H](CCCCN)C(=O)O)C(C)C)C(C)C` (H-DEVVCC[Ahx]KGSLVIRGIVVCK-OH) showed an IC50 of 200 nM. Compared with the last compound, the IC50 is about 15-fold lower.
H-KGSLVIRGVIVVCK-OH showed an IC50 in test [2] of 200 nM.
On to H-CVVIVGRIVLSGK-OH, for which the IC50 in test [4] was found to be 200 nM.
With `CC[C@H](C)[C@@H](NC(=O)[C@H](NC(=O)[C@@H](CC(C)C)NC(=O)[C@@H](CO)NC(=O)CNC(=O)[C@H](CCCCN)NC(=O)CCCCCNC(=O)CCCCCNC(=O)[C@H](CS)NC(=O)[C@H](CS)NC(=O)[C@@H](NC(=O)[C@@H](NC(=O)[C@H](CC(=O)O)NC(=O)[C@@H](N)CCC(=O)O)C(C)C)C(C)C)C(C)C)C(=O)N[C@H](CCCN=C(N)N)C(=O)NCC(=O)N[C@@H](C(=O)N[C@@H](C(=O)N[C@@H](C(=O)N[C@@H](C(=O)N[C@H](CS)C(=O)O)C(C)C)C(C)C)[C@@H](C)CC)C(C)C`, the IC50 on NS3 [1] was found to be 200 nM. That is a sub-micromolar value.
As to Ac-RGGSVVIVGRIILSGRK-OH, it took 3400 nM to reach half-maximal inhibition at Genome polyprotein (IC50). That is a single-digit micromolar value.
With `O=C(CCCCC(=O)Nc1nc2ccccc2[nH]1)Nc1nc2ccccc2[nH]1`, the inhibition – broadly, the change of the read-out against control, counted positive when it falls – against NS3 (Hepatitis C virus) was determined as 13%.
Compound H-KGSVVIVGRIILSGRK-OH displayed an IC50 against Genome polyprotein of 5700 nM. This lies in the single-digit micromolar range.
